Patent US12383556B2, “Methods of treating Sjögren's syndrome using a Bruton's tyrosine kinase inhibitor” (NOVARTIS AG, priority 2019, dated 2025)
Read-outs that look alike come from different tables or passages of the source.

Key:
BTK [1] = target: T1, BTK (Rattus norvegicus, UniProt Q5S255); assay: BTK occupancy ex vivo immunoassay (biotinylated BTK probe) in tissues after oral dosing
T1 construct: total BTK relative protein levels were determined in lysates of selected tissues; from tissue; host or cells: rat spleen, blood, lymph nodes, lung (lysates)
T1 sequence (Q5S255 1-660): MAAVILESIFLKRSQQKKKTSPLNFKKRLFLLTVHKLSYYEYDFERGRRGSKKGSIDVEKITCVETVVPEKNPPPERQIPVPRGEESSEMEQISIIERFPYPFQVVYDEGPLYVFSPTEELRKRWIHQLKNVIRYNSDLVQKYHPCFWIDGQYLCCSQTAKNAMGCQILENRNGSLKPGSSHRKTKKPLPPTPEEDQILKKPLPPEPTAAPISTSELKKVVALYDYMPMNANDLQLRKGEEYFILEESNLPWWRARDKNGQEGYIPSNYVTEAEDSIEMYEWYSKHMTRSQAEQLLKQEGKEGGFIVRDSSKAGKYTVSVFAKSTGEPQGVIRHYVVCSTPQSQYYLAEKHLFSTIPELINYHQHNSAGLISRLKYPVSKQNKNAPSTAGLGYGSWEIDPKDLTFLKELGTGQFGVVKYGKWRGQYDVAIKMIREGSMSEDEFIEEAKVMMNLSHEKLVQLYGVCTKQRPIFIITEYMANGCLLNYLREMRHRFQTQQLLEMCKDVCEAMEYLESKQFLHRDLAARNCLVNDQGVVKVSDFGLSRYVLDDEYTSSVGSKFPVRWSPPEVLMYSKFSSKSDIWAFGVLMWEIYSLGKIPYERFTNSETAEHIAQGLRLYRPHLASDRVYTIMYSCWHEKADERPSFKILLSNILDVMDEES
Method: (§1) The in vivo PD effects of an irreversible BTK inhibitor like compound (I) are determined by the extent and duration of covalent BTK occupancy by the inhibitor. BTK occupancy after treatment with Compound of Formula (I) (also referenced to as Compound (I)) was measured in an ex vivo immunoassay. The fraction of unoccupied BTK protein was assayed after in vitro incubation with a covalent biotinylated BTK probe, since compound (I) and the probe bind to BTK in a mutually exclusive manner. Unoccupied BTK, as well as total BTK relative protein levels were determined in lysates of selected tissues and levels of unoccupied BTK were normalized to total BTK protein levels in the same samples.
(§2) From the experimental data it was apparent that a short transient systemic exposure of compound (I) is sufficient to achieve full BTK occupancy in several tissues at low oral doses of 1-3 mg/kg. […] This very low and transient systemic exposure is consistent with the PK/PD model typical of irreversible inhibitors.
(§3) The duration of BTK occupancy was determined in rats and mice after single oral dose of compound (I) for spleen, blood, lymph nodes and lung. […] The longer persistence of BTK occupancy in blood has been reported before (Advani et al 2013, J Clin Onc; 31(1):88-94).

BTK [2] = assay: as above; parameters: species or system rat; settings: spleen of rodents
Method: as §1, §2, §3

[3] = Blood exposure of compound (I) after oral dose in rats; assay type: in vivo; settings: female, rat, 1 mg/kg dose
Method: as §2

[4] = First-in-human Part 3 food effect PK, single 60 mg dose; assay type: in vivo; settings: for Tmax / AUC(0-t): human, oral, 60 mg
Source text: First-in-human study in up to approximately 168 healthy volunteers (HVs), of which 64 (in Parts 2 & 4) had asymptomatic atopic diathesis. • Part 1 was a double-blind (subject and investigator blind, sponsor unblinded), placebo-controlled single ascending dose (SAD) escalation study of 10 cohorts (N=80) • Part 2 was a double-blind (subject and investigator blind, sponsor unblinded), placebo-controlled multiple ascending dose (MAD) (13 doses over 12 days) escalation study employing once daily dosing in 6 cohorts in healthy volunteers with asymptomatic atopic diathesis (N=48) • Part 3 was a single dose open-label crossover food effect study in 12 HVs • Part 4 was a double-blind (subject and investigator blind, sponsor unblinded), placebo-controlled multiple dose (25 doses over 12 days) study employing twice daily dosing in 2 cohorts of healthy volunteers with asymptomatic atopic diathesis (N=16)
Part 3 was an open-label, randomized, two-way cross-over, single dose study to assess food effects. In Part 3, each subject participated in a 28 day screening period (Day −29 to −2), 2 baseline (Day −1) and 2 treatment periods, each consisting of a single dose administration on Day 1 followed by safety and PK assessment up to Day 5. Treatment period 2 consisted of a follow-up visit and an end of study evaluation on Day 22 and 40, respectively. The two treatment periods were separated by a wash-out period of at least 18 days (+/−1 day).
Subjects were randomized to one of the 2 treatment sequences in the ratio of 1:1:
Pharmacokinetic samples were obtained in blood and evaluated in all subjects at all dose levels. The samples from placebo subjects were not analyzed. The samples for PK assessments from subjects were collected at time points defined in the study. Compound (I) concentrations were determined in blood by a validated LC-MS/MS method.

[5] = single dose 60 mg, FAST, Geomean
[6] = single dose 60 mg, FED, Geomean

- BTK occupancy in blood (BTK [1]; female rats, single oral dose): consistent with those observed in spleen
- spleen BTK occupancy (BTK [1]; female rats, single oral dose 3 mg/kg): full
- receptor occupancy at 0.3 mg/kg (BTK [1]; rat, female rats, single oral dose 0.3 mg/kg, read-out: spleen BTK occupancy): 30%
- receptor occupancy at 1 mg/kg (BTK [1]; rat, female rats, single oral dose 1 mg/kg, read-out: spleen BTK occupancy): 76 to 81%
- BTK occupancy half-life in blood (BTK [1]; rats, single oral dose): approximately 87 hours
- BTK occupancy half-life in spleen (BTK [1]; rats, single oral dose): approximately 5 hours
- concentration at 0.5 h ([3]; 0.5 hours post dose): 49.1 nM
- concentration at 5 h ([3]; 5 hours post dose): 5.6 nM
- Tmax ([4]; blood, fasted, read-out: mean Tmax): 1 h
- Tmax ([4]; blood, fed, read-out: mean Tmax): > 3 h
- AUC(0-t) ([4]; blood, single dose 60 mg, FAST, Geomean, read-out: AUC0-24): 182 ng·h/mL
- AUC(0-t) ([4]; blood, single dose 60 mg, FAST, Geomean, read-out: AUClast): 177 ng·h/mL
- AUC(0-t) ([4]; blood, single dose 60 mg, FAST, Mean, read-out: AUC0-24): 202 ng·h/mL
- AUC(0-t) ([4]; blood, single dose 60 mg, FAST, Mean, read-out: AUClast): 196 ng·h/mL
- Tmax ([4]; blood, single dose 60 mg, FED, Geomean, read-out: Tmax): 3.18 h
- Tmax ([4]; whole blood, single dose 60 mg, FAST, Geomean, read-out: Tmax): 0.95 h
- Tmax ([4]; whole blood, single dose 60 mg, FAST, Mean, read-out: Tmax): 1.02 h
- AUC(0-t) ([4]; whole blood, single dose 60 mg, FED, Geomean, read-out: AUC0-24): 249 ng·h/mL
- AUC(0-t) ([4]; whole blood, single dose 60 mg, FED, Mean, read-out: AUC0-24): 264 ng·h/mL
- AUC(0-t) ([4]; whole blood, single dose 60 mg, FED, Mean, read-out: AUClast): 252 ng·h/mL
- Tmax ([4]; whole blood, single dose 60 mg, FED, Mean, read-out: Tmax): 3.42 h
- Cmax [4, 5]: 100.95 ng/mL
- Tlast [4, 5]: 9.66 h
- Cmax ([4]; single dose 60 mg, FAST, Mean): 114.81 ng/mL
- Tlast ([4]; single dose 60 mg, FAST, Mean): 10.50 h
- AUClast [4, 6]: 237.84 ng·h/mL
- Cmax [4, 6]: 80.86 ng/mL
- Tlast [4, 6]: 9.25 h
- Cmax ([4]; single dose 60 mg, FED, Mean): 83.39 ng/mL
- Tlast ([4]; single dose 60 mg, FED, Mean): 9.50 h
- higher AUC0-24 fed vs fasted ([4]; single oral dose 60 mg): 1.4 fold
- lower Cmax fed vs fasted ([4]; single oral dose 60 mg): 1.25 fold
Compound: C=CC(=O)N(C)CCOc1c(N)ncnc1-c1cc(F)cc(NC(=O)c2ccc(C3CC3)cc2F)c1C [Compound of Formula (I), N-(3-(6-Amino-5-(2-(N-methylacrylamido)ethoxy)pyrimidin-4-yl)-5-fluoro-2-methylphenyl)-4-cyclopropyl-2-fluorobenzamide]
- BTK turnover in tissue (spleen) (BTK [2]): approximately 5 hours
